Reference: PMC9174720, “Evaluation of antioxidant and cytotoxic properties of phenolic N-acylhydrazones: structure–activity relationship” (Royal Society Open Science, 2022)
Like-named read-outs stand apart in the source and are kept apart here.

What was measured:
[1] = tested on: MRC-5; assay: MTT cytotoxicity assay on MRC-5 cells; format: cell-based; settings: Homo sapiens, MRC5, MRC-5 cell line, read-out: Growth inhibitory effects IC50
Description: (§1) In this in vitro study, we investigated the influence of PheNAHs on two model systems: human colorectal carcinoma HCT-116 and human healthy fibroblast cell line MRC-5. Both cell lines of low passages were purchased from the European collection of authenticated cell cultures (ECACC) and were cultivated in Dulbecco's Modified Eagle Medium (DMEM) (Sigma, D5796) cell culture medium supplemented with 10% foetal bovine serum (Sigma, F4135-500 ML) and 1% penicillin/streptomycin (Sigma, P4333-100 ML) in 75 cm^2 culture flasks. The cells were maintained according to the standardized procedure in the incubator with humidified atmosphere supplemented with 5% CO2 at a physiological temperature of 37°C, and after a few passages and a confluence of about 80%, the cells were used in all in vitro experiments (Laboratory for Bioengineering protocol CB-003).
(§2) The ability of synthesized compounds to inhibit the growth of two different cell lines was estimated by a standardized 3-(4,5-dimethylthiazol-2-yl)-2,5-diphenyltetrazolium bromide (MTT) assay (Laboratory for Bioengineering protocol CB-005). The approximative number of 10 000 cells per well (in 96-well microplates) were seeded and kept in the incubator for 24 h to enable cell adhesion. After the incubation period, the cells were treated with investigated compounds in the concentration range from 0,1 to 500 µM dissolved in DMEM. Cytotoxic effect was evaluated 24 and 72 h from treatment by following the number of survived cells, thus the cell viability. MTT assay is based on spectrophotometric measurement of reduction rate of 3-(4,5-dimethylthiazol-2-yl)-2,5-diphenyltetrazolium bromide (MTT, Acros Organics, 158990010) to purple formazan crystals subsequently dissolved in DMSO (Fisher Chemical, D/4121/PB15) on a microplate reader (Rayto 2100C) at 550 nm. The percentage of the survived (viable) cells was estimated by dividing the absorbance of the treatment with the absorbance of the control (non-treated) cells and multiplied by 100 [47]. As positive controls, Leucovorin and Irinotecan were selected as compounds used in colon cancer treatment.
(§3) Biological activity was the result of two individual experiments, performed in triplicate for each dose. Statistical analyses were determined using the one-way analysis of variance (ANOVA) test for multiple comparisons, SPSS (Chicago, IL) statistical software package (SPSS for Windows, v. 17, 2008). The IC50 values were calculated from the dose curves by a computer program (CalcuSyn). IC50 values represent the half-maximal inhibitory concentration of tested compounds to measure the influence in inhibition of cell growth for 50%. […] At the beginning of the process of selecting the anti-cancer drug candidate, it is necessary to make a rough preselection between the tested substances. In vitro analysis on cancer and healthy cell lines is quantified in different ways, selectivity also. The selectivity index (SI) of tested drugs usually refers to the simple ratio of IC50 values determined for cancer and healthy cells. Also, the SI can be used for the expression of many other examples, such as SI between antibacterial and antiviral effect, discrimination of the drugs effect between many cancer cell lines, etc. In our experimentation, the values greater than ‘1’ indicate selectivity of the tested substance toward cancer cell line.

[2] = DPPH radical scavenging assay; format: biochemical; settings: for IC50: DPPH 0.05 mM in methanol, incubated 20 and 60 min, absorbance at 517 nm, mean ± s.d. of three measurements, read-out: IC50 for inactivation of DPPH free radical; for stoichiometric factor (SF): SF=[DPPH]/(2×IC50), good antioxidant if SF ≥ 2
Description: The antioxidant screening of all PheNAHs was performed using the 2,2-diphenyl-1-picrylhydrazyl (DPPH) method. The solution of DPPH radical in methanol (0.05 mM, 1 ml) was mixed with the tested compound (20 µl of different concentrations in dimethyl sulfoxide (DMSO) and 980 µl of methanol). The reaction mixture was incubated in the dark at room temperature for 20 and 60 min after which the absorbance of the sample was measured spectrophotometrically at 517 nm. All measurements were performed in triplicate. Methanol was used as a control solution, whereas quercetin and nordihydroguaiaretic acid (NDGA) were used as reference compounds. […] IC50 is defined as the minimal concentration of tested compound required for reaching 50% of a maximum scavenging capacity. The results were presented as mean values ± standard deviation (s.d.) of three independent measurements. The stoichiometric factor (SF) was calculated for all compounds using the equation [45, 46]:1 SF=[DPPH]/(2×IC50)

[3] = tested on: HCT-116; assay: MTT cytotoxicity assay on HCT-116 cells; format: cell-based, human; settings: for IC50: Homo sapiens, HCT-116 cell line, read-out: Growth inhibitory effects IC50; for selectivity index (SI): ratio of IC50 values of MRC-5 and HCT-116, values greater than 1 indicate selectivity toward cancer cell line
Description: as §1, §2, §3

Row | Structure (SMILES) | IC50 [2] | IC50 ([1]; 24 h exposure) | IC50 ([1]; 72 h exposure) | stoichiometric factor (SF) [2] | IC50 ([3]; 24 h exposure) | IC50 ([3]; 72 h exposure) | selectivity index (SI) ([3]; after 24 h exposure) | selectivity index (SI) ([3]; after 72 h exposure)
1 | COc1cc(/C=N/NC(=O)c2ccc(O)c(OC)c2)ccc1O [4e] | 22.1 ± 1.1 µM | > 500 µM | > 500 µM | 0.6 | > 500 µM | > 500 µM | – | –
2 | COc1cc(C(=O)N/N=C/c2cc(OC)c(O)c(OC)c2)ccc1O [4f] | 6.3 ± 0.3 µM | > 500 µM | > 500 µM | 2 | > 500 µM | > 500 µM | – | –
3 | COc1cc(C(=O)N/N=C/c2ccc(O)cc2O)ccc1O [4g] | > 100 µM | > 500 µM | 307 µM | – | 194 µM | > 500 µM | – | –
4 | COc1cc(C(=O)N/N=C/c2ccc(O)c(O)c2)ccc1O [4h] | 3.4 ± 0.1 µM | > 500 µM | > 500 µM | 3.7 | > 500 µM | > 500 µM | – | –

The next lines start with results.

Row | IC50 [2] | Structure (SMILES) | IC50 ([1]; 24 h exposure) | IC50 ([1]; 72 h exposure) | stoichiometric factor (SF) [2] | IC50 ([3]; 24 h exposure) | IC50 ([3]; 72 h exposure) | selectivity index (SI) ([3]; after 24 h exposure) | selectivity index (SI) ([3]; after 72 h exposure)
5 | 1.3 ± 0.1 µM | O=C(N/N=C/c1ccccc1)c1cc(O)c(O)c(O)c1 [5a] | 175 µM | 59.2 µM | 9.6 | 247 µM | 63.5 µM | 0.71 | 0.93
6 | 1.2 ± 0.1 µM | O=C(N/N=C/c1ccccc1O)c1cc(O)c(O)c(O)c1 [5b] | 104 µM | 52.1 µM | 10.4 | 62.6 µM | 32.4 µM | 1.67 | 1.61
7 | 2.9 ± 0.1 µM | O=C(N/N=C/c1ccc(O)cc1)c1cc(O)c(O)c(O)c1 [5c] | 92 µM | 31.9 µM | 4.3 | 71.8 µM | 38.5 µM | 1.28 | 0.83
8 | 1 ± 0.1 µM | COc1cccc(/C=N/NC(=O)c2cc(O)c(O)c(O)c2)c1O [5d] | 180 µM | 458 µM | 12.5 | 89.9 µM | > 500 µM | 2.00 | <0.92
9 | 1.9 ± 0.1 µM | COc1cc(/C=N/NC(=O)c2cc(O)c(O)c(O)c2)ccc1O [5e] | > 500 µM | 45.8 µM | 6.6 | > 500 µM | 65.2 µM | – | 0.70
10 | 1.1 ± 0.1 µM | COc1cc(/C=N/NC(=O)c2cc(O)c(O)c(O)c2)cc(OC)c1O [5f] | 84.3 µM | 40 µM | 11.4 | 86.9 µM | 43.6 µM | 0.97 | 0.92
11 | 0.9 ± 0.1 µM | O=C(N/N=C/c1ccc(O)cc1O)c1cc(O)c(O)c(O)c1 [5g] | 76.4 µM | 78.6 µM | 13.9 | 99.9 µM | 77.3 µM | 0.76 | 1.02
12 | 0.7 ± 0.1 µM | O=C(N/N=C/c1ccc(O)c(O)c1)c1cc(O)c(O)c(O)c1 [5h] | > 500 µM | 50.6 µM | 17.9 | > 500 µM | 58.8 µM | – | 0.86
